What was measured:
[1] = test system: GXF251L (gastric tumour cell line); assay: Anti-proliferative effect (propidium iodide fluorescence assay), GXF251L; assay type: cell-based, human
Method: (§1) Xenobovide A, B and C inhibited the proliferation of all six tested human tumour cell lines: GXF251L (gastric tumour cell line), LXF529L (lung tumour cell line), MAXF401NL (breast cancer cell line), MEXF462NL (melanoma cell line), PAXF1657L (pancreas tumour cell line) and RXF486L (kidney tumour cell line).
(§2) The anti-proliferative effect was determined according to Dengler et al. (1995, Development of a propidium iodide fluorescence assay for proliferation and cytoxicity assay. Anti-Cancer Drugs 6:522-532).

[2] = test system: LXF529L (lung tumour cell line); assay: Anti-proliferative effect (propidium iodide fluorescence assay), LXF529L; assay type: cell-based, human
Method: as §1, §2

[3] = test system: MAXF401NL (breast cancer cell line); assay: Anti-proliferative effect (propidium iodide fluorescence assay), MAXF401NL; assay type: cell-based, human
Method: as §1, §2

[4] = test system: MEXF462NL (melanoma cell line); assay: Anti-proliferative effect (propidium iodide fluorescence assay), MEXF462NL; assay type: cell-based, human
Method: as §1, §2

[5] = test system: PAXF1657L (pancreas tumour cell line); assay: Anti-proliferative effect (propidium iodide fluorescence assay), PAXF1657L; assay type: cell-based, human
Method: as §1, §2

[6] = test system: RXF486L (kidney tumour cell line); assay: Anti-proliferative effect (propidium iodide fluorescence assay), RXF486L; assay type: cell-based, human
Method: as §1, §2

[7] = biological target: acetylcholine esterase; details: read-out: IC50-value, acetylcholine esterase
Method: Testing was performed according to Birman (1985, Determination of acetylcholinesterase activity by a new chemiluminescence assay with natural substrate. Biochemical Journal. 225:825-828).

[8] = biological target: phosphodiesterase (PDE-4B2) (Homo sapiens, UniProt Q07343); assay: Inhibition of phosphodiesterase PDE-4B2; assay type: biochemical; details: 163 μg/mL
Method: (§3) Xenobovide A in a concentration of 163 μg/mL inhibits the phosphodiesterase (PDE-4B2) by 46%. This enzyme test was carried out according to Hohmann et al. (2009, Caboxamycin, a new antibiotic of the benzoxazole family produced by the deep-sea strain Streptomyces sp. NTK 937. The Journal of Antibiotics. 62:99-104).

[9] = biological target: T1, Protein Tyrosine Phosphatase 1B (PTP1B) (Homo sapiens, UniProt P18031); assay: Inhibition of protein tyrosine phosphatase 1B; assay type: biochemical; details: 26.1 μMol
T1 sequence (P18031 1-435): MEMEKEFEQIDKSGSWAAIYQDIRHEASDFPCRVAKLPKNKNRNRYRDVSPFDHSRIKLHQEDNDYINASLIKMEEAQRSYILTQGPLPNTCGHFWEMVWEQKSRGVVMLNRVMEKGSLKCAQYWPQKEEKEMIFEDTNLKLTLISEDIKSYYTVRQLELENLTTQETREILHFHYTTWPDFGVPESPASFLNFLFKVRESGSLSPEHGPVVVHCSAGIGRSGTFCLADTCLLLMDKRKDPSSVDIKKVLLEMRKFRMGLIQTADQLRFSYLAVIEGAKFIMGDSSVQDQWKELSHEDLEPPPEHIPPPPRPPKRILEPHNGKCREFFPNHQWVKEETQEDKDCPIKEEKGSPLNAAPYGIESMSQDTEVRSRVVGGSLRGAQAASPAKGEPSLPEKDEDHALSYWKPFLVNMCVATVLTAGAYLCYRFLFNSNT
Method: as §3, with “26.1 μMol” for “163 μg/mL”, “protein tyrosine phosphotase 1B (PTB1B)” for “phosphodiesterase (PDE-4B2)”, “59%.” for “46%.”

[10] = biological target: glycogen synthase kinase 3beta (Homo sapiens, UniProt P49841); assay: Inhibition of glycogen synthase kinase 3beta (Kinase-Glo luminescent assay); assay type: biochemical
From the text: Xenobovide A and B, in a concentration of 16.3 μMol and 15.6 μMol, respectively, inhibited the glycogen synthase kinase 3beta by 21% and 43%, respectively. The performance was according to Baki et al. (2007, A high throughput luminescent assay for glycogen synthase kinase-3beta inhibitors. Assay and Drug Development Technologies. 5:75-83) using the kinase-Glo Luminescent Kinase Assay Kit of the company Promega.

[11] = test system: larvae of the wax moth; assay: Insecticidal effect, oral toxicity in feed; assay type: in vivo; details: added to feed, 1 mg substance/mL solution, five larvae per box, 35° C., six days, four repeated experiments
Method: The insecticidal effect was tested against the larvae of the wax moth, a pathogen in beekeeping. […] To test the oral toxicity, 1 mg substance/mL was dissolved in a 50% aqueous ethanol solution. Five larvae each were transferred into a plastic box (2 cm in diameter) and fed with 1 g food mixture (0.8 mL substance solution, 0.2 mL glycerine (86%) and 1 g wheat bran). The control group was fed with 1 g food mixture without addition of substance (0.4 mL aq. dest., 0.4 mL ethanol, 0.2 mL glycerine (86%) and 1 g wheat bran). The incubation of the larvae was at 35° C. for six days. Subsequently, the dead larvae were counted.

Sequence of glycogen synthase kinase 3beta (P49841 whole entry, species assumed): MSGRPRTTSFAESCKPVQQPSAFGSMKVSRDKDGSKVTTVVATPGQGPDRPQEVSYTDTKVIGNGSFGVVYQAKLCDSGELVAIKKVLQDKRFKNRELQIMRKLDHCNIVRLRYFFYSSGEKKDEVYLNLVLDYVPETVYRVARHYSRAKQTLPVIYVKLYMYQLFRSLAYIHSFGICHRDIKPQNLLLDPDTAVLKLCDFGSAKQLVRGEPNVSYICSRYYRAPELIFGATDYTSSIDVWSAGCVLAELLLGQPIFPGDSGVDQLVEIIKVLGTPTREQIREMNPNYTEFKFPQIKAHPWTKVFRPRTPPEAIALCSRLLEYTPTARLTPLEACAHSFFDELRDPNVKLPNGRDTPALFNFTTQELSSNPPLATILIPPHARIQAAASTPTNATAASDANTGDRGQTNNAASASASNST
Sequence of phosphodiesterase (PDE-4B2) (Q07343 1-564 isoform Q07343-2, species assumed): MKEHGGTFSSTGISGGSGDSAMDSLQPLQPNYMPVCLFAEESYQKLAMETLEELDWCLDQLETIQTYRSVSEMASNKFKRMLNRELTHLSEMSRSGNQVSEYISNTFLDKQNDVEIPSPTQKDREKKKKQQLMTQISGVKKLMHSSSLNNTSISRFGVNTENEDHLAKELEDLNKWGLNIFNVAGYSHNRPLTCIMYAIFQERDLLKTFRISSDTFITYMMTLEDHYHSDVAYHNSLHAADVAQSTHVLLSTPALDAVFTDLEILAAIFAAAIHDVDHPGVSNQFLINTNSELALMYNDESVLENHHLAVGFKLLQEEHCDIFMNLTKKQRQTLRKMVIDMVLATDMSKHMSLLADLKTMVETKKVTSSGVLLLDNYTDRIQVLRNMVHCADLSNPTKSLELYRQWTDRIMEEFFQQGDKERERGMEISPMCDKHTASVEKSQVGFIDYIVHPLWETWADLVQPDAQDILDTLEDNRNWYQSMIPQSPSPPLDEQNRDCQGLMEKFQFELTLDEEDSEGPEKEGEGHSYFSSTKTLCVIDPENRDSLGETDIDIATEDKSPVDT

Work on `CCCCC(C)CC(=O)N[C@@H]1C(=O)N[C@@H](C)C(=O)NC(CC(C)C)C(=O)NC(CC(C)C)C(=O)NC(CC(C)C)C(=O)NC(CC(C)C)C(=O)N[C@@H](C)C(=O)O[C@@H]1C` (single isomer, unassigned) [Xenobovide A] yielded an IC50 [1] of 1.6 µM, an IC50 [2] of 8.5 µM and an IC50 [3] of 2.1 µM. For the same molecule, the IC50 [4] was 2.7 µM, the IC50 [5] was 3.5 µM and the IC50 [6] was 12 µM. The IC50 [7] was 53.6 µM, the inhibition at 163 µg/mL [8] was 46% and the “inhibition of protein tyrosine phosphatase 1B” value [9] was 59%. For the same molecule, the “inhibition of glycogen synthase kinase 3beta” value ([10]; 16.3 μMol) was 21% and the “insecticidal effect (dead larvae)” value [11] was “death of all larvae”.
`CCCCC(C)CC(=O)N[C@@H]1C(=O)N[C@@H](C)C(=O)NC(CC(C)C)C(=O)NC(CC(C)C)C(=O)NC(CC(C)C)C(=O)NC(CC(C)C)C(=O)N[C@@H](C)C(=O)O[C@@H]1C` (single isomer, unassigned) [Xenobovide B] was tested, and the IC50 [1] was 2.5 µM, the IC50 [2] was 9.7 µM and the IC50 [3] was 3.2 µM. It also gave an IC50 [4] of 5.3 µM, an IC50 [5] of 2.9 µM and an IC50 [6] of 14.5 µM. The “inhibition of glycogen synthase kinase 3beta” value ([10]; 15.6 μMol) was 43% and the “insecticidal effect (dead larvae)” value [11] was “death of all larvae”.
`CCCCC(C)CC(=O)N[C@@H]1C(=O)N[C@@H](C)C(=O)NC(CC(C)C)C(=O)NC(CC(C)C)C(=O)NC(CC(C)C)C(=O)NC(CC(C)C)C(=O)N[C@@H](C)C(=O)O[C@@H]1C` (single isomer, unassigned) [Xenobovide C] was tested, and the IC50 [1] was 3 µM, the IC50 [2] was 7.8 µM and the IC50 [3] was 8.5 µM. For the same molecule, the IC50 [4] was 9.4 µM, the IC50 [5] was 10.3 µM and the IC50 [6] was 7.6 µM. The “insecticidal effect (dead larvae)” value [11] was “death of all larvae”.

Reference: patent US8765907B2, “Production and use of antitumoral antibiotic and insecticidal cyclodepsipeptides” (Geomar Helmholtz-Zentrum fur Ozeanforschung Kiel, priority 2009, dated 2014)
